According to ChEMBL document CHEMBL2046439, “Spectaflavoside A, a new potent iron chelating dimeric flavonol glycoside from the rhizomes of Zingiber spectabile Griff” (Bioorg Med Chem Lett, 2012):
Counter-ions that a name gives are not always drawn.

Columns and labels:
[1] = Fe2+ chelating activity of the compound incubated for 5 mins prior to ferrozine-addition measured after 10 mins by spectrophotometry; assay type: functional; parameters: concentration or dose not given beside the values
BXPC-3 = assay: Antiproliferative activity against human BxPC3 cells after 48 hrs by MTS assay; assay type: functional, cell-based; settings: BXPC-3, 48 h
MCF7 = assay: Antiproliferative activity against human MCF7 cells after 48 hrs by MTS assay; assay type: functional, cell-based; settings: MCF7, 48 h
SK-MEL-5 = assay: Antiproliferative activity against human SK-MEL-5 cells after 48 hrs by MTS assay; assay type: functional, cell-based; settings: SK-MEL-5, 48 h
MDA-MB-231 = assay: Antiproliferative activity against human MDA-MB-231 cells after 48 hrs by MTS assay; assay type: functional, cell-based; settings: MDA-MB-231, 48 h
HT-29 = assay: Antiproliferative activity against human HT-29 cells after 48 hrs by MTS assay; assay type: functional, cell-based; settings: HT-29, 48 h
DU-145 = assay: Antiproliferative activity against human DU145 cells after 48 hrs by MTS assay; assay type: functional, cell-based; settings: DU-145, 48 h
HepG2 = assay: Antiproliferative activity against human HepG2 cells after 48 hrs by MTS assay; assay type: functional, cell-based; settings: HepG2, 48 h
A549 = assay: Antiproliferative activity against human A549 cells after 48 hrs by MTS assay; assay type: functional, cell-based; settings: A549, 48 h

IC50 (BXPC-3) [µM] | IC50 (MCF7) [µM] | IC50 (SK-MEL-5) [µM] | IC50 (MDA-MB-231) [µM] | IC50 (HT-29) [µM] | IC50 (DU-145) [µM] | IC50 (HepG2) [µM] | IC50 (A549) [µM] | SMILES | Activity [1] [%]
– | – | – | – | – | – | – | – | CC(=O)O[C@@H]1[C@@H](O)[C@H](C)O[C@@H](Oc2c(-c3ccc(O)cc3)oc3cc(O)cc(O)c3c2=O)[C@@H]1OC(C)=O | 52.2
1.13 | 24.1 | 1.74 | 31.5 | 11.2 | 4.25 | 0.16 | 2.36 | CC[C@]1(O)C[C@@H]2CN(CCc3c([nH]c4ccccc34)[C@@](C(=O)OC)(c3cc4c(cc3OC)N(C)[C@H]3[C@@](O)(C(=O)OC)[C@H](OC(C)=O)[C@]5(CC)C=CCN6CC[C@]43[C@@H]65)C2)C1 [VINBLASTINE SULFATE] | –
– | – | – | – | – | – | – | – | O=c1c(O)c(-c2ccc(O)cc2)oc2cc(O)cc(O)c12 | 12.1
11.4 | 65.2 | 50.4 | 64.7 | 15.9 | 38.2 | 59.4 | 62.6 | COc1cc(/C=C/C(=O)CC(=O)/C=C/c2ccc(O)c(OC)c2)ccc1O [CURCUMIN] | 37.9
113 | > 150 | > 150 | > 150 | > 150 | > 150 | > 150 | > 150 | CC(=O)O[C@@H]1[C@@H](O)[C@@H](OC(C)=O)[C@H](Oc2c(-c3ccc(O)cc3)oc3cc(O)cc(O)c3c2=O)O[C@H]1C | 49.1
> 150 | > 150 | > 150 | > 150 | > 150 | > 150 | > 150 | > 150 | CC(=O)O[C@@H]1[C@@H](O)[C@@H](O)[C@H](Oc2c(-c3ccc(O)cc3)oc3cc(O)cc(O)c3c2=O)O[C@H]1C | 29.1
– | – | – | – | – | – | – | – | CC(=O)O[C@@H]1[C@@H](O)[C@@H](O)[C@H](Oc2c(-c3ccc(O)cc3)oc3cc(O)c(-c4c(O)cc(O)c5c(=O)c(O[C@@H]6O[C@@H](C)[C@H](OC(C)=O)[C@@H](O)[C@H]6O)c(-c6ccc(O)cc6)oc45)c(O)c3c2=O)O[C@H]1C | 87.4
24.1 | 75.3 | 61.4 | 87.5 | 19.4 | 48.1 | 80 | 74.1 | COc1cc(/C=C/C(O)=C/C(=O)/C=C/c2ccc(O)cc2)ccc1O [DEMETHOXYCURCUMIN] | 50.9
– | – | – | – | – | – | – | – | CC(=O)O[C@@H]1[C@@H](OC(C)=O)[C@@H](O)[C@H](Oc2c(-c3ccc(O)cc3)oc3cc(O)cc(O)c3c2=O)O[C@H]1C | 55.4
